Experimental data as given in patent US20220018836A1, “NON-LIVING SURROGATE INDICATORS AND METHODS FOR SANITATION VALIDATION” (priority 2018, published 2022).

Tests used:
phage T7 = test: Survivor population of phage T7 after sanitizer treatment; type: cell-based; details: 2 min, 4° C.
E. coli O157:H7 cells = type: cell-based, Escherichia coli O157:H7

Row | Structure (SMILES) | inactivation of phage T7 (phage T7; PAA at 80 ppm, 9 log inoculum level) | complete inactivation of phages (phage T7; PAA up to 80 ppm, 9 log inoculum level) | further inactivation of E. coli O157:H7 with an increase of PAA concentration (E. coli O157:H7 cells) | inactivation of E. coli O157:H7 cells (E. coli O157:H7 cells) | survivors of E. coli O157:H7 (E. coli O157:H7 cells) | complete inactivation of inoculated phages (phage T7; lowest concentration tested, 2 ppm of free chlorine)
1 | CC(=O)OO [PAA, peracetic acid] | more than 6 log | complete inactivation of phages (9 log inoculum level) was not observed | no significant inactivation | 2 log | around 4 log | –
2 | OCl [chlorine, sodium hypochlorite] | – | – | – | – | – | complete inactivation of inoculated phages was observed
